US20060079453A1, “Hla binding peptides and their uses” (priority 2002, published 2006)
Read-outs that look alike come from different tables or passages of the source. No end group written: not given here.

Columns and labels:
Assay in all cases: biochemical
Type in all cases: binding
[1] = target: HLA-DR DRB1*0701 (DR7) (Homo sapiens, UniProt P01903+P01911, A100R/A102G/A103Q/D57E/D86V/E43K/F76Y/K127E/L162R/M171V/P40G/Q125H/Q99D/R33Q/R42Y/R54Q/S133A/S66F/T210M/V115G/Y107V/Y59L/Y89S); settings: DRB1 *0701
[2] = target: HLA-DR DRB1*0401 (DR4) (Homo sapiens, UniProt P01903+P01911, A100K/A169T/F76Y/I96L/K127E/L162R/M171V/N62H/P40V/Q125Y/R42H/S133A/S149N/S66Y/V115G/V209L/W38E)
[3] = target: HLA-DR DRB1*1501 (DR15) (Homo sapiens, UniProt P01903+P01911)
[4] = target: HLA-DR DRB1*1302 (DR13) (Homo sapiens, UniProt P01903+P01911, A100E/A169T/K41T/L162R/M171V/P40S/Q125H/Q178H/Q39Y/Q99D/R42S/S66N/T262R/V115G/W38E/Y61H)
[5] = target: HLA-DR DRB1*0101 (DR1) (Homo sapiens, UniProt P01903+P01911, A100R/D57E/F55L/F60I/F76Y/I96L/L162R/M171V/P40L/Q125E/R42F/V115G/Y59C); settings: DRB1 *0101
[6] = target: HLA-DR DRB5*0101 (DR51) (Homo sapiens, UniProt P01903+Q30154)
[7] = target: HLA-DR DRB4*0101 (DR53) (Homo sapiens, UniProt P01903+P13762, G164S)

Sequence of HLA-DR DRB1*1302 (DR13) (P01903 26-254 limits assumed, other chains not shown): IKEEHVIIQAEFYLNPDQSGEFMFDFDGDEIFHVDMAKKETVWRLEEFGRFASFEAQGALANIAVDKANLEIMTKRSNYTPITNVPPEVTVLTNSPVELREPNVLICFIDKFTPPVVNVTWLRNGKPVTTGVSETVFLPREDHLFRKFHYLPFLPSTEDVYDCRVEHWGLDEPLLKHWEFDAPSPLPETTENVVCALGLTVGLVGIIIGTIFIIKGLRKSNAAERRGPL

Compound: KSLLSTNLPYGRTNL
- IC50 [1]: 50000 nM
- IC50 ([2]; DRB1 *0401): 690 nM

Compound: MIMIKFMGVIYIMII [MJMIKFMGVIYIMII]
- IC50 ([3]; DRBI *1501): 23600 nM
- IC50 ([4]; DRBI *1302): 102 nM

Compound: C[C@H](N)C(=O)N[C@@H](CO)C(=O)N[C@@H](C)C(=O)N[C@@H](C)C(=O)N[C@@H](C)C(=O)N[C@@H](C)C(=O)N[C@@H](C)C(=O)N[C@@H](C)C(=O)N[C@@H](C)C(=O)N[C@@H](C)C(=O)N[C@@H](C)C(=O)N[C@@H](C)C(=O)N[C@@H](C)C(=O)O
- IC50 [5]: ≥ 50000 nM

Compound: AALKATAAAAAAA
- IC50 ([2]; DRB1 *0401): 800 nM
- IC50 [5]: ≥ 50000 nM

Compound: AAAKAAAAAAAAF
- IC50 ([2]; DRB1 *0401): > 348 nM
- IC50 [5]: > 1670 nM

Compound: CC[C@H](C)[C@H](NC(=O)[C@@H](NC(=O)[C@@H]1CCCN1C(=O)[C@H](Cc1ccccc1)NC(=O)[C@H](Cc1ccccc1)NC(=O)[C@H](Cc1ccc(O)cc1)NC(=O)[C@H](CCC(N)=O)NC(=O)[C@H](Cc1c[nH]c2ccccc12)NC(=O)[C@H](CC(N)=O)NC(=O)CNC(=O)[C@@H](N)C(C)C)C(C)C)C(=O)N[C@@H](Cc1ccccc1)C(=O)N[C@@H](CO)C(=O)N[C@@H](CCCCN)C(=O)N[C@@H](C)C(=O)O
- IC50 [1]: 100 nM
- IC50 ([2]; DRB1 *0401): 4.1 nM
- IC50 [5]: 37 nM

Compound: AFLRAAAAAAFAA
- IC50 ([2]; DRB1 *0401): 400 nM
- IC50 [5]: ≥ 50000 nM

Compound: VYDFVFADLRGVYRD
- IC50 ([3]; read-out: DRBI *1501): 855 nM
- IC50 ([4]; read-out: DRBI *1302): 79 nM
- IC50 ([6]; read-out: DRB5 *0101): > 51000 nM

Compound: ENPVVHAFKNIVTPR
- IC50 ([3]; DRBI *1501): 4.1 nM
- IC50 ([6]; DRB5 *0101): 910 nM

Compound: IRNLALQTLPAM
- IC50 ([7]; DRB4 *0101): 2 nM

Compound: PKYFKQRLLKFAT
- IC50 ([2]; read-out: DRB1 *0401): 400 nM

Compound: ESTGMTPEKVPVSEVM
- IC50 ([7]; read-out: DRB4 *0101): > 64400 nM
- IC50 ([4]; read-out: DRBI *1302): > 17500 nM

Compound: EERVKKPLSEITIRC
- IC50 [1]: 9450 nM
- IC50 ([2]; DRB1 *0401): 11900 nM
- IC50 ([7]; DRB4 *0101): 2990 nM
- IC50 ([6]; DRB5 *0101): 7910 nM

Compound: PQPFKPQQPYPQ
- IC50 ([7]; DRB4 *0101): 19 nM

Compound: AAKAAAAAAA(10)AA
- IC50 ([2]; read-out: DRB1 *0401): > 889 nM

Compound: PKPFRPQQPYPQ
- IC50 ([7]; DRB4 *0101): 3.4 nM

Compound: (43)AADFGIFIDFHA
- IC50 ([2]; read-out: DRB1 *0401): 235 nM

Compound: C[C@H](N)C(=O)N[C@@H](C)C(=O)N[C@@H](C)C(=O)N[C@@H](C)C(=O)N[C@@H](C)C(=O)N[C@@H](C)C(=O)N[C@@H](C)C(=O)N[C@@H](C)C(=O)N[C@@H](C)C(=O)N[C@@H](C)C(=O)N[C@@H](C)C(=O)N[C@@H](C)C(=O)N[C@@H](CC(N)=O)C(=O)O
- IC50 ([2]; DRB1 *0401): 500 nM
- IC50 [5]: ≥ 50000 nM

Compound: SAVPVYIYFNTWTTCQSIAF
- IC50 ([3]; read-out: DRBI *1501): 92 nM
- IC50 ([6]; read-out: DRB5 *0101): 20000 nM

Compound: NLALQTLPAMCNVY
- IC50 ([7]; DRB4 *0101): 27 nM

Compound: FLYGALLLAEGFYTTGAVRQ
- IC50 ([3]; DRBI *1501): 45 nM
- IC50 ([6]; DRB5 *0101): 256 nM

Compound: HFNMLKNKMQSSFFM
- IC50 [1]: 3230 nM
- IC50 ([2]; DRB1 *0401): 18 nM
- IC50 ([3]; DRBI *1501): 616 nM
- IC50 ([7]; DRB4 *0101): 934 nM
- IC50 [5]: 12 nM
- IC50 ([6]; DRB5 *0101): 60 nM

Compound: PQPFRPQQPYPQ
- IC50 ([7]; DRB4 *0101): 15 nM

Compound: PFRPQQPYPQ
- IC50 ([7]; DRB4 *0101): 42 nM

Compound: SMEYKKDFLITARKY
- IC50 ([3]; read-out: DRBI *1501): 4610 nM
- IC50 ([4]; read-out: DRBI *1302): 3820 nM
